According to patent US6638938B1, “Method for preventing tissue injury from hypoxia” (Cell Therapeutics, Inc., priority 1993, dated 2003):

Tested on: LPAAT (lysophosphatidic acyltransferase)
Assay: inhibition of LPAAT activity
Type: biochemical
Conditions: extremely weak inhibitor; above clinically achievable concentrations

CC(=O)CCCCn1c(=O)c2c(ncn2C)n(C)c1=O [pentoxifylline, 1-(5-oxohexyl)3,7-dimethylxanthine, reference compound]
concentration required for inhibition of LPAAT activity: > 1 mM
